Source: article PMC6272684, “Synthesis, Antiproliferative and Antifungal Activities of 1,2,3-Triazole-Substituted Carnosic Acid and Carnosol Derivatives” (Molecules, 2015)

Tests used:
C. neoformans ATCC 32264 = assay: Antifungal broth microdilution (CLSI M27-A3), growth inhibition; format: cell-based, Cryptococcus neoformans; conditions: for MIC50 (minimum concentration to inhibit 50% of fungal growth), C. neoformans: C. neoformans ATCC 32264
Method: (§1) The antifungal properties of compounds 1–24 against two clinical important fungal species, C. albicans ATCC 10231 and C. neoformans ATCC 32264 were investigated. Results were expressed as the percentages of inhibition of each fungus in the range 250–3.9 μg∙mL^−1 by using the standardized microbroth dilution method M-27A3 of Clinical and Laboratory Standards Institute which assures reliable and reproducible results.
(§2) For the antifungal evaluation, standardized strains from the American Type Culture Collection (ATCC), Rockville, MD, USA, were used. The microorganisms included yeasts (Candida albicans ATCC 10231 and Cryptococcus neoformans ATCC 32264). Strains were grown on Sabouraud-chloramphenicol agar slants for 48 h at 30 °C, maintained on slopes of Sabouraud-dextrose agar (SDA, Oxoid), and subcultured every 15 days to prevent pleomorphic transformations. Inocula of cell or spore suspensions were obtained according to reported procedures and adjusted to 1–5 × 10^3 cells/spores with colony forming units (CFU)/mL [29].
(§3) Broth microdilution techniques were performed in 96-well microplates according to the Clinical and Laboratory Standards Institute Reference Method for Broth Dilution Antifungal Susceptibility Testing of Yeasts, Approved Standard M27-A3 [29]. For the assay, compound test wells (CTWs) were prepared with stock solutions of each compound in DMSO (maximum concentration ≤1%), diluted with RPMI-1640, to final concentrations of 250–3.9 μg∙mL^−1. An inoculum suspension (100 μL) was added to each well (final volume in the well = 200 μL). A growth control well (GCW) (containing medium, inoculum, and the same amount of DMSO used in a CTW, but compound-free) and a sterility control well (SCW) (sample, medium, and sterile water instead of inoculum) were included for each fungus tested. Microtiter trays were incubated in a moist, dark chamber at 30 °C for 48 h for both yeasts. Microplates were read in a VERSA Max microplate reader (Molecular Devices, Sunnyvale, CA, USA). Amphotericin B (Sigma-Aldrich) was used as positive control. Tests were performed in triplicate. Reduction of growth for each compound concentration was calculated as follows: % of inhibition = 100 − (OD 405 CTW − OD 405 SCW)/(OD 405 GCW − OD 405 SCW). The means ± SEM were the results of triplicate tests. Three endpoints were defined from the assay explained above and the dose-response curves. Minimum Inhibitory concentration (MIC) resulting in total fungal growth inhibition was named MIC100 while MIC50 was defined as the minimum concentration that inhibits 50% of the fungal growth.

C. albicans ATCC 10231 = assay: as above; format: cell-based, Candida albicans; conditions: for MIC50 (minimum concentration to inhibit 50% of fungal growth), C. albicans: C. albicans ATCC 10231
Method: as §1, §2, §3

SMILES	MIC50 (minimum concentration to inhibit 50% of fungal growth), C. neoformans (C. neoformans ATCC 32264) [µg/mL]	MIC50 (minimum concentration to inhibit 50% of fungal growth), C. albicans (C. albicans ATCC 10231) [µg/mL]	Inhibition percentage against C. neoformans ATCC 32264 (C. neoformans ATCC 32264; 3.9 μg∙mL^−1, 48 h) [%]	Inhibition percentage against C. neoformans ATCC 32264 (C. neoformans ATCC 32264; 7.8 μg∙mL^−1, 48 h) [%]	Inhibition percentage against C. neoformans ATCC 32264 (C. neoformans ATCC 32264; 15.6 μg∙mL^−1, 48 h) [%]	Inhibition percentage against C. neoformans ATCC 32264 (C. neoformans ATCC 32264; 31.2 μg∙mL^−1, 48 h) [%]	Inhibition percentage against C. neoformans ATCC 32264 (C. neoformans ATCC 32264; 62.5 μg∙mL^−1, 48 h) [%]	Inhibition percentage against C. neoformans ATCC 32264 (C. neoformans ATCC 32264; 125 μg∙mL^−1, 48 h) [%]	Inhibition percentage against C. neoformans ATCC 32264 (C. neoformans ATCC 32264; 250 μg∙mL^−1, 48 h) [%]	Inhibition percentage against C. albicans ATCC 10231 (C. albicans ATCC 10231; 3.9 μg∙mL^−1, 48 h) [%]	Inhibition percentage against C. albicans ATCC 10231 (C. albicans ATCC 10231; 7.8 μg∙mL^−1, 48 h) [%]	Inhibition percentage against C. albicans ATCC 10231 (C. albicans ATCC 10231; 15.6 μg∙mL^−1, 48 h) [%]	Inhibition percentage against C. albicans ATCC 10231 (C. albicans ATCC 10231; 62.5 μg∙mL^−1, 48 h) [%]	Inhibition percentage against C. albicans ATCC 10231 (C. albicans ATCC 10231; 125 μg∙mL^−1, 48 h) [%]	Inhibition percentage against C. albicans ATCC 10231 (C. albicans ATCC 10231; 250 μg∙mL^−1, 48 h) [%]	Inhibition percentage against C. albicans ATCC 10231 (C. albicans ATCC 10231; 31. μg∙mL^−1, 48 h) [%]
CC(C)c1cc2c(c(OC(=O)CCc3cn(Cc4ccccc4)nn3)c1OC(=O)CCc1cn(Cc3ccccc3)nn1)C13CCCC(C)(C)C1CC2OC3=O (stereo not drawn) [Compound 19, (7β)-11,12-O-(3-(1-benzyl-1H-1,2,3-triazol-4-yl)-propanoyloxy)-7,20-epoxyabieta-8,11,13-trien-20-one]	>250	>250	0.0	0.0	0.0	0.0	3.3 ± 1.1	7.1 ± 2.0	31.3 ± 1.6	0.7 ± 0.3	3.2 ± 0.1	3.2 ± 0.1	11.9 ± 1.0	21.1 ± 1.0	37.8 ± 0.5	4.6 ± 1.8
CC(C)c1cc2c(c(OC(=O)CCCc3cn(Cc4ccccc4)nn3)c1OC(=O)CCCc1cn(Cc3ccccc3)nn1)C13CCCC(C)(C)C1CC2OC3=O (stereo not drawn) [Compound 20, (7β)-11,12-O-(4-(1-benzyl-1H-1,2,3-triazol-4-yl)-butanoyloxy)-7,20-epoxyabieta-8,11,13-trien-20-one]	>250	>250	0.0	0.0	0.0	2.7 ± 2.7	10.4 ± 0.2	14.5 ± 1.2	22.0 ± 1.0	0.7 ± 0.1	1.6 ± 0.2	3.0 ± 0.4	10.9 ± 1.6	21.4 ± 3.4	34.5 ± 0.5	4.3 ± 0.4
CC(C)c1cc2c(c(OC(=O)CCc3cn(Cc4ccc(Br)cc4)nn3)c1OC(=O)CCc1cn(Cc3ccc(Br)cc3)nn1)C13CCCC(C)(C)C1CC2OC3=O (stereo not drawn) [Compound 21, (7β)-11,12-O-(3-(1-(4-bromobenzyl)-1H-1,2,3-triazol-4-yl)-propanoyloxy)-7,20-epoxyabieta-8,11,13-trien-20-one]	>250	>250	1.2 ± 0.6	6.7 ± 0.3	17.9 ± 0.2	18.9 ± 0.7	19.2 ± 0.2	28.8 ± 0.4	40.0 ± 0.3	0.0	0.0	2.6 ± 0.6	4.4 ± 1.3	6.6 ± 1.1	8.6 ± 2.0	3.5 ± 0.6

Now from value to compound, other results behind:

MIC50 (minimum concentration to inhibit 50% of fungal growth), C. neoformans (C. neoformans ATCC 32264) [µg/mL]	MIC50 (minimum concentration to inhibit 50% of fungal growth), C. albicans (C. albicans ATCC 10231) [µg/mL]	SMILES	Inhibition percentage against C. neoformans ATCC 32264 (C. neoformans ATCC 32264; 3.9 μg∙mL^−1, 48 h) [%]	Inhibition percentage against C. neoformans ATCC 32264 (C. neoformans ATCC 32264; 7.8 μg∙mL^−1, 48 h) [%]	Inhibition percentage against C. neoformans ATCC 32264 (C. neoformans ATCC 32264; 15.6 μg∙mL^−1, 48 h) [%]	Inhibition percentage against C. neoformans ATCC 32264 (C. neoformans ATCC 32264; 31.2 μg∙mL^−1, 48 h) [%]	Inhibition percentage against C. neoformans ATCC 32264 (C. neoformans ATCC 32264; 62.5 μg∙mL^−1, 48 h) [%]	Inhibition percentage against C. neoformans ATCC 32264 (C. neoformans ATCC 32264; 125 μg∙mL^−1, 48 h) [%]	Inhibition percentage against C. neoformans ATCC 32264 (C. neoformans ATCC 32264; 250 μg∙mL^−1, 48 h) [%]	Inhibition percentage against C. albicans ATCC 10231 (C. albicans ATCC 10231; 3.9 μg∙mL^−1, 48 h) [%]	Inhibition percentage against C. albicans ATCC 10231 (C. albicans ATCC 10231; 7.8 μg∙mL^−1, 48 h) [%]	Inhibition percentage against C. albicans ATCC 10231 (C. albicans ATCC 10231; 15.6 μg∙mL^−1, 48 h) [%]	Inhibition percentage against C. albicans ATCC 10231 (C. albicans ATCC 10231; 62.5 μg∙mL^−1, 48 h) [%]	Inhibition percentage against C. albicans ATCC 10231 (C. albicans ATCC 10231; 125 μg∙mL^−1, 48 h) [%]	Inhibition percentage against C. albicans ATCC 10231 (C. albicans ATCC 10231; 250 μg∙mL^−1, 48 h) [%]	Inhibition percentage against C. albicans ATCC 10231 (C. albicans ATCC 10231; 31. μg∙mL^−1, 48 h) [%]
125	>250	CC(C)c1cc2c(c(OC(=O)CCCc3cn(Cc4ccc(Br)cc4)nn3)c1OC(=O)CCCc1cn(Cc3ccc(Br)cc3)nn1)C13CCCC(C)(C)C1CC2OC3=O (stereo not drawn) [Compound 22, (7β)-11,12-O-(4-(1-(4-bromobenzyl)-1H-1,2,3-triazol-4-yl)-butanoyloxy)-7,20-epoxyabieta-8,11,13-trien-20-one]	0.0	4.7 ± 0.8	4.8 ± 0.2	7.6 ± 0.9	28.5 ± 1.3	52.3 ± 2.3	–	0.0	2.9 ± 0.7	5.1 ± 0.4	7.0 ± 1.0	10.1 ± 0.8	12.5 ± 2.2	5.9 ± 0.2
>250	>250	CC(C)c1cc2c(c(OC(=O)CCCc3cn(Cc4ccc([N+](=O)[O-])cc4)nn3)c1OC(=O)CCCc1cn(Cc3ccc([N+](=O)[O-])cc3)nn1)C13CCCC(C)(C)C1CC2OC3=O (stereo not drawn) [Compound 24, (7β)-11,12-O-(4-(1-(4-nitrobenzyl)-1H-1,2,3-triazol-4-yl)-butanoyloxy)-7,20-epoxyabieta-8,11,13-trien-20-one]	4.9 ± 1.4	15.4 ± 0.1	21.0 ± 0.1	24.3 ± 0.5	27.3 ± 0.7	31.7 ± 1.6	45.8 ± 2.0	0.0	0.0	0.0	4.8 ± 0.6	14.3 ± 2.0	29.8 ± 1.9	3.4 ± 0.5
